Reference: patent US20250090510A1, “eIF4G1-eIF1 INHIBITORS AND USE THEREOF” (YEDA RESEARCH AND DEVELOPMENT CO. LTD., priority 2022, published 2025)

Key:
human blood cells = experiment: Effect on host blood cells in the parasitemia assay; settings: i14G1-10 20 uM, i14G1-12 10 uM; 1 hour
Description: Parasitemia assay. The NF54 strain of the Plasmodium falciparum was used for the Survival test. Parasites were grown in RPMI medium pH 7.4, 25 mg/ml HEPES, 50 μg/ml hypoxanthine, 2 mg/ml sodium bicarbonate, 20 μg/ml gentamycin, and 0.5% (w/v) Albumax II (Invitrogen). Pooled donor red blood cells, provided by the Israeli blood bank, at 4% hematocrit, and incubated at 37° C. in a gas mixture of 1% 02, 5% CO2 in N2 were used.
Parasitaemia levels were measured 24 hours later.

HEK293T cells = experiment: TCP-seq (translation complex profiling) of 48S footprints; type: cell-based, human; settings: 5 μM, one hour
Text: FIGS. 9A-H: Inhibition of eIF1-eIF4G1 leads to 48S instability and scanning defect (9A) Polysome profiles of HEK293T cells treated with DMSO or i14G1-12 after crosslinking with formaldehyde, lysis and Rnase I digestion. The grey layer represents the fractions corresponding to the 40S ribosome used for the TCP-seq library preparation. (9B) Heatmap representing the log 2 mean of the relative number of reads mapping to the individual tRNAs in i14G1-12 over DMSO (n=3). The number of reads was normalized to the codon frequency in the human transcriptome. (9C) Volcano plot showing log 2 fold change (FC) of the abundance of each tRNAs comparing i14G1-12 over DMSO with FDR <0.05 and a log 2 FC threshold of 1. (9D) Histograms showing the relative number of reads mapping to mRNA in DMSO vs. i14G1-12. (9E) Metagene plots of normalized ribosome footprints (RPFs) counts on leader region. Numbers indicate the slope of the regression lines. (9F) Volcano plot showing log 2 fold change of the differential initiation analysis in i14G1-12 over DMSO. […] (9G) Bar chart of the relative number of reads mapping to each mRNA feature in DMSO and i14G-12.
FIGS. 10A-J: Definition of leaky scanning and its regulation by specific mRNA features and eIF1-eIF4G1. (10A) Metagene plots of normalized ribosome footprints (RPFs) counts on CDS region. (10B) Scatter plot representing the leaky scanning score (LS) of transcripts in i14G1-12 versus DMSO. Transcripts with a significant LS (FDR <0.05) in DMSO and i14G1-12 are highlighted. […] (10D) Boxplots of the leaky scanning score in DMSO and in i14G1-12. […] (10F) Plot of the mean GC content in a 20 nt window around the start codon of leaky and non-leaky transcripts in DMSO and i14G1-12. (10G) Boxplot representing the log 5′ UTR length of leaky and non-leaky transcripts in DMSO and i14G1-12.
HEK293T cells were grown to 90% confluence at 37° C. in a humidified incubator supplemented with 5% CO2. Cells were treated with DMSO or 5 μM i14G1-12 for 1 hour. After treatment, cells were directly removed from the incubator and treated with 0.15% formaldehyde for 10 min on ice with slow shaking. The reaction was stopped by adding 37.5 mM glycine for 5 minutes. Media was aspirated and the plates were washed with cold PBS. Cells were lysed with fresh lysis buffer (100 mM KCl, 20 mM Tris-HCl pH 8, 1.5 mM MgCl2, 1.5% (v/v) NP-40, 2 mM DTT) supplemented with protease inhibitor for 20 min in a cold room with slow agitation. Lysates were clarified by centrifugation at 20,000 g. RNA amount was quantified by nanodrop. 10% of the lysate was kept and snap freeze for total RNA extraction. Digestion was performed by the addition of 0.0075 U Rnase I per μg of RNA to the lysate for 30 min at room temperature. Digestion was stopped by adding a Super RNase inhibitor (ThermoFischer). Lysates were loaded onto a 5-45% sucrose gradient (100 mM KCl, 20 mM HEPES pH 7, 5 mM MgCl2, 2 mM DTT) and centrifuged at 39000 rpm for two hours and forty-five minutes in an SW41 rotor at 4° C. Gradients were analyzed through a UV lamp (254 nm) and an Absorbance detector while being fractionated in 250 μL fractions using a Foxy Junior Fraction Collector (Isco).
RNA from the undigested extract and the sucrose gradient fractions corresponding to the 40S were extracted by addition of 1 mL or one volume of TRIzol respectively. Samples were heated at 65° C. for 15 minutes and vortexed every five minutes. Extraction was continued by addition of chloroform and alcohol precipitation of the aqueous phase. RNA-seq libraries were prepared with the TruSeq stranded RNA Library Prep (Illumina). TCP-seq libraries were prepared as described herein by selecting footprints reads with a length ranging from 16 nt to 85 nt. Libraries were sequenced at the iGE3 Genomic Platform (UNIGE) on a Hiseq 4000. […]

| Structure (SMILES) | effect on human blood cells (human blood cells) | iMet tRNA abundance in 48S fractions (HEK293T cells; relative to DMSO) | number of reads mapping to mRNAs (HEK293T cells; relative to DMSO) | number of leaky genes (LS >3) (HEK293T cells; DMSO n=637) [genes] | number of non-leaky genes (LS<−3) (HEK293T cells; DMSO n=1223) [genes] | number of downregulated differentially scanned genes (HEK293T cells; log 2 FC threshold 1, FDR 0.05) [genes] | number of upregulated differentially scanned genes (HEK293T cells; log 2 FC threshold 1, FDR 0.05) [genes] |
| --- | --- | --- | --- | --- | --- | --- | --- |
| O=C(/C=C/Sc1ccc(C(F)(F)F)cn1)c1ccccc1 [i14G1-10] | not adversely affected |  |  |  |  |  |  |
| Cn1ccnc1S/C(=C/C=C(C#N)C#N)c1ccc(Cl)cc1 [i14G1-12] |  | most downregulated tRNA | significantly decreased | 1266 | 325 | 476 | 10 |
